Experimental data as given in patent US9458181B2, “Cathepsin cysteine protease inhibitors” (Merck Sharp & Dohme Corp., priority 2013, dated 2016).
pIC50: −log10 of the molar value.

Legend:
[1] = molecular target: human cathepsin K (UniProt P43236); assay: Cathepsin K Assay (hrbCat K); type: biochemical; details: human cathepsin K 0.4 nM, Z-Leu-Arg-AMC 8 μM, pH 5.5, 15 min preincubation; read-out: hrbCat K IP
Outline: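 Human cathepsin K (0.4 nM) in pH 5.5 MES buffer with EDTA, DTT and 10% DMSO was preincubated 15 min at room temperature with compound from a ⅓ dilution series (500-0.025 μM DMSO stocks). Z-Leu-Arg-AMC (8 μM) was then added, and AMC release was followed fluorometrically (Ex 360/Em 460 nm) for 30 min; inhibition was fitted to a dose-response model.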

[2] = molecular target: T1, human cathepsin F (Homo sapiens, UniProt Q9UBX1); assay: Cathepsin F assay (hCat F); type: biochemical; details: human cathepsin F 10 nM, Z-Phe-Arg-AMC 8 μM, pH 5.5, 15 min preincubation; read-out: hCat F IP
T1 sequence (Q9UBX1 271-484): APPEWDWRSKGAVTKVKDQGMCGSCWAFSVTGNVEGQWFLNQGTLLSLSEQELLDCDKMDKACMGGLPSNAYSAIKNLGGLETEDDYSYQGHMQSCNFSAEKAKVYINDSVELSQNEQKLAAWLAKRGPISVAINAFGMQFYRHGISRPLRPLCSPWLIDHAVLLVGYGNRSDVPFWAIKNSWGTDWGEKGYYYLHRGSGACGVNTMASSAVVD
Outline: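 Human cathepsin F (10 nM) in 50 mM MES pH 5.5, 2.5 mM EDTA, 2.5 mM DTT, 10% DMSO was preincubated 15 min at RT with compounds from a ⅓ DMSO dilution series (500–0.025 μM stocks). Z-Phe-Arg-AMC was added (8 μM as added), and AMC release was read by fluorescence (360/460 nm) for 20 min. Percent inhibition was fitted to a dose-response model.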

SMILES	pIC50 [1]	pIC50 [2]
N#CC1(NC(=O)[C@@H]2CCC(F)(F)C[C@H]2c2oc(C(F)(F)C(F)(F)F)nc2-c2ccc(N3CCS(=O)(=O)CC3)cc2)CC1 [Example 150, (1R,2R)-N-(1-cyanocyclopropyl)-2-(4-(4-(1,1-dioxidothiomorpholino)phenyl)-2-(perfluoroethyl)oxazol-5-yl)-4,4-difluorocyclohexane-carboxamide]	8.33	≤ 5.00
CC(C)[C@@H](C#N)NC(=O)[C@@H]1CCCC[C@H]1c1oc(-c2ccc(F)cc2)nc1-c1ccc(N2CC[S+]([O-])CC2)cc1 [Example 151, (1R,2R)-N-((S)-1-cyano-2-methylpropyl)-2-(2-(4-fluorophenyl)-4-(4-(1-oxidothiomorpholino)phenyl)oxazol-5-yl)cyclohexanecarboxamide]	8.51	6.20
N#CC1(NC(=O)[C@@H]2CCCC[C@H]2c2oc(-c3ccc(F)cc3)nc2-c2ccc(N3CCc4ccccc43)cc2)CC1 [Example 152, (1R,2R)-N-(1-cyanocyclopropyl)-2-(2-(4-fluorophenyl)-4-(4-(indolin-1-yl)phenyl)oxazol-5-yl)cyclohexanecarboxamide]	7.05	6.08
N#CC1(NC(=O)[C@@H]2CCCC[C@H]2c2oc(-c3ccc(F)cc3)nc2-c2ccc(N3CCS(=O)(=O)CC3)cc2)COC1 [Example 153, (1R,2R)-N-(3-cyanooxetan-3-yl)-2-(4-(4-(1,1-dioxidothiomorpholino)phenyl)-2-(4-fluorophenyl)oxazol-5-yl)cyclohexanecarboxamide]	9.17	6.68
N#CC1(NC(=O)[C@@H]2CC(Cl)(Cl)CC[C@H]2c2oc(C(F)(F)C(F)(F)F)nc2-c2ccc(C(=O)N3CCOCC3)cc2)CC1 [Example 154, (1R,2R)-5,5-dichloro-N-(1-cyanocyclopropyl)-2-(4-(4-(morpholine-4-carbonyl)phenyl)-2-(perfluoroethyl)oxazol-5-yl)cyclohexanecarboxamide]	9.17	6.59
N#C[C@@H](NC(=O)[C@@H]1CCCC[C@H]1c1oc(-c2ccc(F)cc2)nc1-c1ccc(N2CCS(=O)(=O)CC2)cc1)C1CC1 [Example 155, (1R,2R)-N-((S)-cyano(cyclopropyl)methyl)-2-(4-(4-(1,1-dioxidothiomorpholino)phenyl)-2-(4-fluorophenyl)oxazol-5-yl)cyclohexanecarboxamide]	9.14	7.43
N#C[C@@H](NC(=O)[C@@H]1CCCC[C@H]1c1oc(-c2ccc(F)cc2)nc1-c1ccc(N2CCS(=O)(=O)CC2)cc1)C1CCCCC1 [Example 156, (1R,2R)-N-((S)-cyano(cyclohexyl)methyl)-2-(4-(4-(1,1-dioxidothiomorpholino)phenyl)-2-(4-fluorophenyl)oxazol-5-yl)cyclohexanecarboxamide]	8.62	6.75
CC(C)(C)[C@@H](C#N)NC(=O)[C@@H]1CCCC[C@H]1c1oc(-c2ccc(F)cc2)nc1-c1ccc(N2CCS(=O)(=O)CC2)cc1 [Example 157, (1R,2R)-N-((S)-1-cyano-2,2-dimethylpropyl)-2-(4-(4-(1,1-dioxidothiomorpholino)phenyl)-2-(4-fluorophenyl)oxazol-5-yl)cyclohexanecarboxamide]	6.54	5.63
